Assay results published in patent US10125134B2 (Mirati Therapeutics, Inc., priority 2016, dated 2018).
pIC50: −log10 of the molar value. Where two headings read alike, the source gives them in different places.

Assays:
KRas G12C = KRas G12C (Homo sapiens, UniProt P01116, C118S/C51S/C80L/G12C); assay: KRas G12C Modification Assay (LCMS detection of covalent adduct); assay type: binding; details: normalized percent of control; tested at 5 μM concentration for 3 hours
How it was run: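 Cys-light KRas G12C mutant protein incubated with compound in K-Ras assay buffer, reactions quenched at set time points with 25 mM acetic acid and analysed by intact-protein LC/MS on a C-3 column. Deconvoluted mass heights expressed as percent of control (POC) relative to compound-free protein.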

[1] = test system: NCI-H358 cells (express KRas G12C), Phospho-ERK; assay: Cellular inhibition of KRas G12C: Phospho-ERK in NCI-H358 cells; assay type: cell-based; details: Homo sapiens, pERK(Thr202/Tyr204) normalized with GAPDH, NCI-H358 cells, 3 hours, read-out: IC50
How it was run: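 IC50 derived by 4-parameter fit of GAPDH-normalized pERK(Thr202/Tyr204) signal, as percent of DMSO control. Signal came from in-cell immunodetection with infrared secondaries after 3 h compound exposure of KRas G12C NCI-H358 cells at 0.5% DMSO.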

POC (KRas G12C)	SMILES	pIC50 ([1]; NCI-H358, 3 h)	pIC50 [1]
A (“A”≤25% POC)	C=C(C)C(=O)N1CCN(c2nc(OC[C@@H]3CCCN3C)nc3c2CCN(c2cccc4ccccc24)C3)CC1CC#N (stereo partly drawn) [Example 261, 2-[1-(2-methylprop-2-enoyl)-4-[2-[[(2S)-1-methylpyrrolidin-2-yl]methoxy]-7-(1-naphthyl)-6,8-dihydro-5H-pyrido[3,4-d]pyrimidin-4-yl]piperazin-2-yl]acetonitrile]	< 6.00	–
A (“A”≤25% POC)	C=CC(=O)N1CCN(c2nc(OC[C@@H]3CCCN3C)nc3c2CCN(c2cccc4cnccc24)C3)CC1CC#N (stereo partly drawn) [Example 262, 2-[4-[7-(5-isoquinolyl)-2-[[(2S)-1-methylpyrrolidin-2-yl]methoxy]-6,8-dihydro-5H-1-pyrido[3,4-d]pyrimidin-4-yl]-1-prop-2-enoyl-piperazin-2-yl]acetonitrile]	< 6.00	–
C (“C”>50% POC)	C/C=C/C(=O)N1CCN(c2nc(OC[C@@H]3CCCN3C)nc3c2CCN(c2cccc4ccccc24)C3)CC1CC#N (stereo partly drawn) [Example 263, 2-[1-[(E)-but-2-enoyl]-4-[2-[[(2S)-1-methylpyrrolidin-2-yl]methoxy]-7-(1-naphthyl)-6,8-dihydro-5H-pyrido[3,4-d]pyrimidin-4-yl]piperazin-2-yl]acetonitrile]	6.00 to 10.00	–
C (“C”>50% POC)	C=CC(=O)N1CCN(c2nc(OC[C@@H]3CCCN3C)nc3c2CCN(c2cccc4ncccc24)C3)CC1CC#N (stereo partly drawn) [Example 264, 2-[4-[2-[[(2S)-1-methylpyrrolidin-2-yl]methoxy]-7-(5-quinolyl)-6,8-dihydro-5H-pyrido[3,4-d]pyrimidin-4-yl]-1-prop-2-enoyl-piperazin-2-yl]acetonitrile]	< 6.00	–
C (“C”>50% POC)	C=CC(=O)N1CCN(c2nc(OC[C@@H]3CCCN3C)nc3c2CCN(c2cccc(C)c2C(F)(F)F)C3)CC1CC#N (stereo partly drawn) [Example 265, 2-(1-acryloyl-4-(7-(3-methyl-2-(trifluoromethyl)phenyl)-2-(((S)-1-methylpyrrolidin-2-yl)methoxy)-5,6,7,8-tetrahydropyrido[3,4-d]pyrimidin-4-yl)piperazin-2-yl)acetonitrile]	6.00 to 10.00	–
C (“C”>50% POC)	C=CC(=O)N1CCN(c2nc(OC[C@@H]3CCCN3CCOC)nc3c2CCN(c2cccc4ccccc24)C3)CC1CC#N (stereo partly drawn) [Example 266, 2-(1-acryloyl-4-(2-(((S)-1-(2-methoxyethyl)pyrrolidin-2-yl)methoxy)-7-(naphthalen-1-yl)-5,6,7,8-tetrahydropyrido[3,4-d]pyrimidin-4-yl)piperazin-2-yl)acetonitrile]	6.00 to 10.00	–
C (“C”>50% POC)	C=CC(=O)N1CCN(c2nc(OC[C@@H]3C[C@@H](OC)CN3C)nc3c2CCN(c2cccc4ccccc24)C3)CC1CC#N (stereo partly drawn) [Example 268, 2-(1-acryloyl-4-(2-(((2S,4R)-4-methoxy-1-methylpyrrolidin-2-yl)methoxy)-7-(naphthalen-1-yl)-5,6,7,8-tetrahydropyrido[3,4-d]pyrimidin-4-yl)piperazin-2-yl)acetonitrile]	6.00 to 10.00	–
C (“C”>50% POC)	C=CC(=O)N1CCN(c2nc(OCC(C)(C)N(C)C)nc3c2CCN(c2cccc4ccccc24)C3)CC1CC#N (stereo not shown) [Example 269, 2-(1-acryloyl-4-(2-(2-(dimethylamino)-2-methylpropoxy)-7-(naphthalen-1-yl)-5,6,7,8-tetrahydropyrido[3,4-d]pyrimidin-4-yl)piperazin-2-yl)acetonitrile]	6.00 to 10.00	–
C (“C”>50% POC)	C=CC(=O)N1CCN(c2nc(OC[C@H]3CN(C)CCO3)nc3c2CCN(c2cccc4ccccc24)C3)CC1CC#N (stereo partly drawn) [Example 270, 2-(1-acryloyl-4-(2-(((R)-4-methylmorpholin-2-yl)methoxy)-7-(naphthalen 1-yl)-5,6,7,8-tetrahydropyrido[3,4-d]pyrimidin-4-yl)piperazin-2-yl)acetonitrile]	6.00 to 10.00	–
C (“C”>50% POC)	C=CC(=O)N1CCN(c2nc(OC[C@@H]3CN(C)CCO3)nc3c2CCN(c2cccc4ccccc24)C3)CC1CC#N (stereo partly drawn) [Example 271, 2-(1-acryloyl-4-(2-(((S)-4-methylmorpholin-2-yl)methoxy)-7-(naphthalen-1-yl)-5,6,7,8-tetrahydropyrido[3,4-d]pyrimidin-4-yl)piperazin-2-yl)acetonitrile]	6.00 to 10.00	–

Second part, the compound before the results:

SMILES	POC (KRas G12C)	pIC50 ([1]; NCI-H358, 3 h)	pIC50 [1]
C=CC(=O)N1CCN(c2nc(OC[C@@H]3CCCN3C)nc3c2CCN(c2cccc4c(F)cccc24)C3)CC1CC#N (stereo partly drawn) [Example 254, 2-[4-[7-(5-fluoro-1-naphthyl)-2-[[(2S)-1-methylpyrrolidin-2-yl]methoxy]-6,8-dihydro-5H-pyrido[3,4-d]pyrimidin-4-yl]-1-prop-2-enoyl-piperazin-2-yl]acetonitrile]	C (“C”>50% POC)	6.00 to 10.00	–
C=CC(=O)N1CCN(c2nc(OC[C@@H]3CCCN3C)nc3c2CCN(c2cccc4ccc(OC)cc24)C3)CC1CC#N (stereo partly drawn) [Example 255, 2-[4-[7-(7-methoxy-1-naphthyl)-2-[[(2S)-1-methylpyrrolidin-2-yl]methoxy]-6,8-dihydro-5H-pyrido[3,4-d]pyrimidin-4-yl]-1-prop-2-enoyl-piperazin-2-yl]acetonitrile]	A (“A”≤25% POC)	< 6.00	–
C=CC(=O)N1CCN(c2nc(OC[C@@H]3CCCN3C)nc3c2CCN(c2cccc4ccccc24)C3)CC1COC (stereo partly drawn) [Example 256, 1-(2-(methoxymethyl)-4-(2-(((S)-1-methylpyrrolidin-2-yl)methoxy)-7-(naphthalen-1-yl)-5,6,7,8-tetrahydropyrido[3,4-d]pyrimidin-4-yl)piperazin-1-yl)prop-2-en-1-one]	C (“C”>50% POC)	< 6.00	–
C=CC(=O)N1CCN(c2nc(OC[C@@H]3CCCN3C)nc3c2CCN(c2nccc4ccccc24)C3)CC1CC#N (stereo partly drawn) [Example 258, 2-[4-[7-(1-isoquinolyl)-2-[[(2S)-1-methylpyrrolidin-2-yl]methoxy]-6,8-dihydro-5H-pyrido[3,4-d]pyrimidin-4-yl]-1-prop-2-enoyl-piperazin-2-yl]acetonitrile]	C (“C”>50% POC)	< 6.00	–
C=CC(=O)N1CCN(c2nc(OC[C@@H]3CCCN3C)nc3c2CCN(c2cccc4cc(F)ccc24)C3)CC1CC#N (stereo partly drawn) [Example 259, 2-[4-[7-(6-fluoro-1-naphthyl)-2-[[(2S)-1-methylpyrrolidin-2-yl]methoxy]-6,8-dihydro-5H-pyrido[3,4-d]pyrimidin-4-yl]-1-prop-2-enoyl-piperazin-2 yl]acetonitrile]	C (“C”>50% POC)	6.00 to 10.00	–
C=CC(=O)N1CCN(c2nc(OC[C@@H]3CCCN3C)nc3c2CCN(c2cncc4ccccc24)C3)CC1CC#N (stereo partly drawn) [Example 260, 2-[4-[7-(4-isoquinolyl)-2-[[(2S)-1-methylpyrrolidin-2-yl]methoxy]-6,8-dihydro-5H-pyrido[3,4-d]pyrimidin-4-yl]-1-prop-2-enoyl-piperazin-2-yl]acetonitrile]	C (“C”>50% POC)	6.00 to 10.00	–
C=CC(=O)N1CCN(c2nc(OC[C@H]3CCCN3C)nc3c2CCN(c2cccc4ccccc24)C3)C[C@@H]1CC#N [Example 267, 2-((S)-1-acryloyl-4-(2-(((R)-1-methylpyrrolidin-2-yl)methoxy)-7-(naphthalen-1-yl)-5,6,7,8-tetrahydropyrido[3,4-d]pyrimidin-4-yl)piperazin-2-yl)acetonitrile]	C (“C”>50% POC)	–	6.00 to 10.00
